In US5994563A, “Arylmethylphosphonic acid derivatives useful in treating bone wasting diseases” (Ortho Pharmaceutical Corporation, priority 1999, dated 1999):
Read-outs that look alike come from different tables or passages of the source.

Legend:
[1] = molecular target: human osteoblastic (TE85) tyrosinephosphate phosphatase; assay type: biochemical; details: for IC50: read-out: TF85 IC50
[2] = tested on: human TE85 osteoblast-line cells; assay: Osteoblast Cell Proliferation (3H-thymidine incorporation); assay type: cell-based; details: 24 h, read-out: Osteoblast Cell Prolif % X Control; for activity at 100 µM: concentration of drug 100 μM
From the text: The action of select compounds to stimulate osteoblast growth can be measured in culture by assuming the rate of DNA synthesis is proportional to the rate of ^3 H-thymidine incorporation into DNA. Only cells undergoing mitosis will synthesize new DNA and thus only these cells will incorporate the radiolabelled DNA-specific thymidine. The stimulation of the proliferation and differentiation of bone-forming cells, osteoblasts, is a prerequisite for an increase in bone formation and bone mass. The ability of agents to increase osteoblast proliferation and differentiation can be predicted (reference) by their action on cultured osteoblast-line cells in vitro. In this test human TE85 osteoblast-line cells (100,000) were plated on 24 well plates in DMEM containing 5% fetal calf serum for 48 hours. After removal of the media, 0.3 mL of serum-free media containing 0.25% BSA was added to each well. After 24 hours, the treatments were added to the conditioned media for an additional 24 hours. Tritiated thymidine (0.6uCi) was added for the last two hours. After rinsing the cells with Dulbeccos PBS, the cells were released from the plate by trypsinizing with 0.25 mL trypsin (0.25%) for 5-10 min. An equal aliquot of 25% TCA was added and the cell lysate allowd to stand for 15 minutes at 4° C. The lysate was centrifuged for 10 minutes, the supernatant removed, and the pellet washed with 0.2 mL of cold 80% ethanol. After a second centrifugation, the pellet was suspended in 0.1 mL 0.1% Triton X-1 00. The pellet was then sonicated to remove all of the material from the sides of the tube. This material was placed into a scintillation vial. An additional 0.08 mL of the Triton was used to rinse the tube before placing into the vial. These mbined samples were quantitated by scintillation spectrometry.

CD45 [3] = molecular target: T1, CD45 (Homo sapiens, UniProt P08575); details: read-out: IC50 (CD45)
T1 sequence (P08575 26-1306): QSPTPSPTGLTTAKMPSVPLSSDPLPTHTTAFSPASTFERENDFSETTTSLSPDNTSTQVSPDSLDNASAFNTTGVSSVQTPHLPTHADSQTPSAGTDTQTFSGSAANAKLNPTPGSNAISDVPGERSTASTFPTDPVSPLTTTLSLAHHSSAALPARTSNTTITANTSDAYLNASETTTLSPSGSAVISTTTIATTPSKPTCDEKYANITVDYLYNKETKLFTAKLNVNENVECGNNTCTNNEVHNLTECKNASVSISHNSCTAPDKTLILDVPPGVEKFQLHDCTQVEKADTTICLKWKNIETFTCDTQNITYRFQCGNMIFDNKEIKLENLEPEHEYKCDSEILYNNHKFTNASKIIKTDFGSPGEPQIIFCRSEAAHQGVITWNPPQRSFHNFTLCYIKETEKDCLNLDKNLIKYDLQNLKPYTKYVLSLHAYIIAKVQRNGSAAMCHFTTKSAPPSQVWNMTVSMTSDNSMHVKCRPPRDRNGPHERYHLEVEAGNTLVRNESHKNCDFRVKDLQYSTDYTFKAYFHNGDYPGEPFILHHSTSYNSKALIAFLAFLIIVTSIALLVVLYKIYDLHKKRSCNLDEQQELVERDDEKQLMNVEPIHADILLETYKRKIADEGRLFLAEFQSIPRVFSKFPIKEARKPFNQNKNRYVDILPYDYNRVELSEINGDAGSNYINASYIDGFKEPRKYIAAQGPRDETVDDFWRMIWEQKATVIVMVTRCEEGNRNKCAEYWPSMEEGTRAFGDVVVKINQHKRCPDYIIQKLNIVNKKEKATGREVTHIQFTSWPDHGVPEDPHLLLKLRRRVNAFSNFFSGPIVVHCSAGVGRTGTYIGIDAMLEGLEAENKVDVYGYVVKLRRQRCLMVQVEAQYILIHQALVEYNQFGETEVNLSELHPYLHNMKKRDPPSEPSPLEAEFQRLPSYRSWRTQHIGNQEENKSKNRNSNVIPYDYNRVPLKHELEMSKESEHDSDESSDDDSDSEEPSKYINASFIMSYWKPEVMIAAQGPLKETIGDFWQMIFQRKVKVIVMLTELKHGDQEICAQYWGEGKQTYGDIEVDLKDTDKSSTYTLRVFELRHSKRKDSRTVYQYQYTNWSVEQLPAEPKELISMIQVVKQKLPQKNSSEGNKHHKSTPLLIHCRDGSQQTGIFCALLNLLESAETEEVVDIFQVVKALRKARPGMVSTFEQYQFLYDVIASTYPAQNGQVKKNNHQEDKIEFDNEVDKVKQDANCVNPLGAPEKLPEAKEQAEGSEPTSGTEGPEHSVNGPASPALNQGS

CD45 [4] = molecular target: T1, CD45; assay: biochemical

Structure (SMILES): Cc1ccc(C(O)P(=O)(O)O)cc1[N+](=O)[O-] (centres unmarked) [Example 52, (3-Nitro-4-methyl)phenylhydroxymethyphosphonic acid]
- IC50 [1]: 30 µM

Structure (SMILES): CCCCCCCCCCSc1ccc([N+](=O)[O-])cc1C(O)P(=O)(O)O (centres unmarked) [Example 36, [2-(1-N-decyl)thio-5-nitro]phenylhydroxymethylphosphonic acid]
- IC50 [1]: 1 µM

Structure (SMILES): O=[N+]([O-])c1ccc(SC2CCCCC2)c(C(O)P(=O)(O)O)c1 (centres unmarked) [Example 26, (2-Cyclohexylthio-5-nitro)phenylhydroxymethylphosphonic acid]
- activity at 100 µM [2]: 138%
- IC50 [1]: 5.8 µM
- IC50 (CD45 [3]; pH 6): 1.2 µM

Structure (SMILES): O=C(c1cc([N+](=O)[O-])ccc1Cl)P(=O)(O)O [Example 58, (2-Chloro-5-nitro)phenyloxomethylphosphonic acid]
- IC50 [1]: 5 µM

Structure (SMILES): O=Cc1ccc(OC(=O)c2ccccc2)c([N+](=O)[O-])c1 [Example 50, 3-Nitro-4-benzoyloxybenzaldehyde]
- IC50 [1]: 17 µM

Structure (SMILES): O=[N+]([O-])c1cc(C(O)P(=O)(O)O)cs1 (centres unmarked) [Example 40, 2-Nitro-4-thienylhydroxymethylphosphosphonic acid]
- TF85 % @ 300 μM ([1]; te85 cell extract, 15 min): 79%
- IC50 (CD45 [3]; pH 6): 38 µM

Structure (SMILES): O=[N+]([O-])c1ccc(Cl)c(C(O)P(=O)(O)O)c1 (centres unmarked) [Example 2, (2-Chloro-5-nitro)phenylhydroxymethylphosphonic acid]
- IC50 [1]: 35 µM
- IC50 (CD45 [3]; enzyme from Jurkat cell (JEG-6) membranes, pH 6.0, 90 minutes at 37° C.): 20 µM

Structure (SMILES): Cc1ccccc1CSc1ccc([N+](=O)[O-])cc1C(O)P(=O)(O)O (centres unmarked) [Example 29, [2-(2-Methyl)benzylthio-5-nitro]phenylhydroxymethyl phosphonic acid]
- IC50 [1]: 9.4 µM

Structure (SMILES): O=[N+]([O-])c1ccc(Sc2ccccc2)c(C(O)P(=O)(O)O)c1 (centres unmarked) [Example 17, (2-Phenylthio-5-nitro)phenylhydroxymethylphosphonic acid]
- activity at 100 µM [2]: 119%
- IC50 [1]: 28 µM

Structure (SMILES): Cc1ccc(CSc2ccc([N+](=O)[O-])cc2C(O)P(=O)(O)O)cc1 (centres unmarked) [Example 31, [2-(4-Methyl)benzylthio-5-nitro]phenylhydroxymethylphosphonic acid]
- activity at 30 µM ([2]; concentration of drug 30 μM): 159%
- IC50 [1]: 0.82 µM

Structure (SMILES): O=[N+]([O-])c1cc(C(O)P(=O)(O)O)ccc1Sc1ccc(Br)cc1 (centres unmarked) [Example 54, [3-Nitro-4-(4-bromophenylthio)]phenylhydroxymethylphosphonic acid]
- TF85 % @ 30 μM ([1]; te85 cell extract, 15 min): 75%

Structure (SMILES): O=[N+]([O-])c1ccc(Sc2ccccn2)c(C(O)P(=O)(O)O)c1 (centres unmarked) [Example 22, [2-(2-Pyridyl)thio-5-nitro]phenylhydroxymethyl-phosphonic acid]
- IC50 [1]: 14 µM
- IC50 (CD45 [3]; pH 6): 1 µM

Structure (SMILES): O=[N+]([O-])c1ccc(O)c(C(O)P(=O)(O)O)c1 (centres unmarked) [Example 7, (2-Hydroxy-5-nitro)phenylhydroxymethylphosphonic acid]
- IC50 [1]: 30 µM

Structure (SMILES): O=[N+]([O-])c1ccc(Oc2cccnc2)c(C(O)P(=O)(O)O)c1 (centres unmarked) [Example 15, [2-(3-Pyridyl)oxy-5-nitro]phenylhydroxymethyl-phosphonic acid]
- IC50 [1]: 33 µM

Structure (SMILES): O=[N+]([O-])c1ccc(Oc2ccccc2)c(C(O)P(=O)(O)O)c1 (centres unmarked) [Example 12, (2-Phenoxy-5-nitro)phenylhydroxymethylphosphonic acid]
- IC50 (CD45 [4]): 14 µM
- activity at 100 µM [2]: 112%
- IC50 [1]: 18 µM

Structure (SMILES): O=[N+]([O-])c1ccc(-c2ccccc2)c(C(O)P(=O)(O)O)c1 (centres unmarked) [Example 59, (2-Phenyl-5-nitro) phenylhydroxymethylphosphonic acid]
- IC50 [1]: 10 µM

Structure (SMILES): O=[N+]([O-])c1ccc(Sc2cccc(C(F)(F)F)c2)c(C(O)P(=O)(O)O)c1 (centres unmarked) [Example 20, [2-(3-Trifluoromethyl)phenylthio-5-nitro]phenylhydroxymethylphosphonic acid]
- activity at 100 µM [2]: 139%
- IC50 [1]: 2.4 µM

Structure (SMILES): O=[N+]([O-])c1cc(C(O)P(=O)(O)O)ccc1OCc1ccc(Cl)c(Cl)c1 (centres unmarked) [Example 56, [3-Nitro-4-(3,4-dichlorobenzyloxy)]phenylhydroxymethylphosphonic acid]
- IC50 [1]: 30 µM

Structure (SMILES): Cc1ccc(Oc2ccc([N+](=O)[O-])cc2C(O)P(=O)(O)O)cc1 (centres unmarked) [Example 14, [2-(4-Methyl)phenoxy-5-nitro]phenylhydroxymethyl phosphonic acid]
- TF85 % @ 300 μM ([1]; te85 cell extract, 15 min): 90%

Structure (SMILES): Cc1ccc(CCSc2ccc([N+](=O)[O-])cc2C(O)P(=O)(O)O)cc1 (centres unmarked) [Example 32, [2-(4-Methylphenylethylthio)-5-nitro]phenyl-hydroxymethyl phosphonic acid]
- TF85 % @ 300 μM ([1]; te85 cell extract, 15 min): 73%

Structure (SMILES): Cc1cccc(CSc2ccc([N+](=O)[O-])cc2C(O)P(=O)(O)O)c1 (centres unmarked) [Example 30, [2-(3-Methyl)benzylthio-5-nitro]phenylhydroxymethyl phosphonic acid]
- IC50 [1]: 4.4 µM

Structure (SMILES): O=[N+]([O-])c1ccc(SCCCc2ccccc2)c(C(O)P(=O)(O)O)c1 (centres unmarked) [Example 34, [2-(3-Phenylpropyl)thio-5-nitro]phenylhydroxy-methyl phosphonic acid]
- activity at 100 µM [2]: 127%
- IC50 [1]: 0.45 µM

Structure (SMILES): O=[N+]([O-])c1ccc(C(O)P(=O)(O)O)s1 (centres unmarked) [Example 43, 5-Nitro-2-thiophenehydroxymethylphosphonic acid]
- IC50 [1]: 1 µM

Structure (SMILES): O=[N+]([O-])c1ccc(Sc2ccc(Cl)cc2)c(C(O)P(=O)(O)O)c1 (centres unmarked) [Example 19, [2-(4-Chlorophenylthio)-5-nitro]phenylhydroxymethylphosphonic acid]
- TF85 % @ 300 μM ([1]; te85 cell extract, 15 min): 95%
- IC50 (CD45 [3]; pH 6): 28 µM

Structure (SMILES): O=[N+]([O-])c1ccc(SCc2ccccc2)c(C(O)P(=O)(O)O)c1 (centres unmarked) [Example 28, (2-Benzylthio-5-nitro)phenylhydroxymethylphosphonic acid]
- IC50 (CD45 [4]): 6 µM
- activity at 100 µM [2]: 111%
- IC50 [1]: 6.3 µM

Structure (SMILES): CCCCCCSc1ccc([N+](=O)[O-])cc1C(O)P(=O)(O)O (centres unmarked) [Example 38, [2-(1-N-hexanyl)thio-5-nitro]phenylhydroxy-methylphosphonic acid]
- IC50 [1]: 1 µM

Structure (SMILES): COc1ccccc1Sc1ccc([N+](=O)[O-])cc1C(O)P(=O)(O)O (centres unmarked) [Example 24, [2-(2-Methoxyphenylthio)-5-nitro]phenylhydroxymethylphosphonic acid]
- IC50 [1]: 23 µM
